Assay results as given in patent US10201536B2, “Methods and pharmaceutical compositions for the treatment of bacterial infections in patients suffering from cirrhosis” (INSERM (INSTITUT NATIONAL DE LA SANTE ET DE LA RECHERCHE …, priority 2015, dated 2019).
Residues, ends and D or L forms follow the SMILES beside them. *: point of attachment. MeOSuc = COC(=O)CCC(=O)*; CH2Cl = ClC*

Experiments:
Format in all cases: cell-based
elastase [1] = biological target: T1, elastase (Homo sapiens, UniProt P08246); assay: gp91phox surface expression of healthy PMN treated with plasma from cirrhotic patients, with NEI; conditions: 12 H, 25% plasma, 100 μM
T1 construct: with plasma of healthy volunteers or cirrhotic patients, (25% plasma in 1 ml RPMI containing 5×10^6 PMN); from tissue; host or cells: plasma of cirrhotic patients, incubated with healthy human PMN
T1 sequence (P08246 30-267): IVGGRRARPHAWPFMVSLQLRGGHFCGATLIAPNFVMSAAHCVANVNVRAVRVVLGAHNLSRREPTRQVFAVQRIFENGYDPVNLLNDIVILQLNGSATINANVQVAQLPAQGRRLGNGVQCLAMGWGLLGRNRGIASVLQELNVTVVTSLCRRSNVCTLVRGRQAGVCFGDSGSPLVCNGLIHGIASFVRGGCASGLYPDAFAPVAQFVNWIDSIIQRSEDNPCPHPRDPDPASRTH
Description: (§1) FIG. 9. Plasma from cirrhotic patients reduces gp91phox expression at the surface of healthy PMN and ROS production in NEI-sensitive manner. PMN were pretreated for 12 H at 37° C. with RPMI (control) or with plasma of healthy volunteers or cirrhotic patients, (25% plasma in 1 ml RPMI containing 5×10^6 PMN) either in the absence or presence of the elastase inhibitor NEI (100 μM). PMN were labelled with the anti-gp91phox FITC-coupled antibody. (A) Quantification of the number of positive cells labeled with the anti-gp91phox FITC-coupled antibody (7D5) by Flow cytometry, expressed as percentage of control values. […] (C, D) Time course production of superoxide induced by PMA by healthy PMN which were pretreated for 12 H in the absence (Buffer/RPMI) or presence of plasma from healthy volunteers and cirrhotic patients, either with or without 100 μM NEI. (E) Production of superoxide expressed as percentage of control values (mean±SEM, n=5). […]
(§2) Granulocyte elastase is released during infectious processes and has been proposed to be helpful for the diagnosis of patients with spontaneous bacterial peritonitis (Casafon et al., 1999), a major complication of the alcoholic liver cirrhosis. […] Consistent with this observation, patients' plasmas inhibited NOX2 activity of PMN measured by the cytochrome C assay (FIGS. 9C-E) and chemiluminescence.

neutrophil elastase [2] = biological target: T2, neutrophil elastase (Homo sapiens, UniProt P08246); assay: gp91phox degradation in healthy PMN by cell-free degranulation supernatant with elastase inhibitor; conditions: 100 μM 15 min pretreatment, 45 min supernatant
T2 construct: a cell-free degranulation supernatant obtained from fMLP (1 μM, 2 min) stimulated PMN; endogenous in cells; host or cells: healthy human PMN stimulated with fMLP, or their cell-free degranulation supernatant
T2 sequence (P08246 30-267): T1 sequence (P08246 30-267)
Description: (§3) FIG. 8. Elastase induces the degradation of gp91phox and p22phox in healthy PMN. (A and B) Western-blot analysis and densitometric quantification of gp91phox and p22phox in healthy PMN treated in the absence or presence of elastase at 0.1 and 0.5 units for 1 hour. (C and D) Western-blot analysis densitometric quantification of gp91phox and […] in healthy PMN treated in the absence or presence of the elastase inhibitor (NEI) at 100 μM for 15 min before stimulation with fMLP (1 μM) for 45 min. (E) Western-blot analysis densitometric quantification of gp91phox in healthy PMN pretreated in the absence or presence of the elastase inhibitor (NEI) at 100 μM for 15 min before incubation for 45 min with a cell-free degranulation supernatant obtained from fMLP (1 μM, 2 min) stimulated PMN. Blots are representative of 4 experiments and densitometric analyses are cumulative and expressed as percentage of the actin level. […] (F) Sensorgrams of the PMN specific binding and dissociation to the anti-gp91phox antibody (7D5) coated to the CM3 sensorchip, analysed with the Biacore X100, as a function of time. […] Data are representative of 3 independent experiments are expressed as resonance unit (RU). (G) Flow cytometry quantification of the Gp91phox expression at the surface of PMN treated or not (Control) with 0.5 unit Elastase at 4° C. […]

neutrophil elastase [3] = biological target: T2, neutrophil elastase; assay: fMLP-induced depletion of gp91phox and p22phox in healthy PMN with elastase inhibitor; conditions: 100 μM 15 min before fMLP (1 μM) 45 min
Description: as §3

elastase [4] = biological target: T1, elastase; assay: NOX2 activity (superoxide production) of healthy PMN treated with plasma from cirrhotic patients, with NEI; conditions: 12 H, 25% plasma, 100 μM, PMA-induced superoxide
Description: as §1, §2

**Q.** What does the source list for `COC(=O)CCC(=O)N[C@@H](C)C(=O)N[C@@H](C)C(=O)N1CCC[C@H]1C(=O)N[C@H](C(=O)CCl)C(C)C` [NEI, MeOSuc-AAPV-CMK] (MeOSuc-AAPV-CH2Cl)?
**A.** decrease of gp91phox positive cells and surface expression caused by patients' plasma (elastase [1]): prevented; gp91phox degradation by cell-free degranulation supernatant (neutrophil elastase [2]): blocked gp91phox degradation; fMLP-induced depletion of gp91phox and p22phox (neutrophil elastase [3]): prevented; inhibition of NOX2 activity by patients' plasma (elastase [4]): prevented the inhibitory effects
